Data from patent US6407248B1, “α-unsaturated amines, their production and use” (Takeda Chemical Industries, Ltd., priority 1987, dated 2002).
Like-named read-outs stand apart in the source and are kept apart here.

Test system: Brown Planthoppers (Nilaparvata lugens)
Assay: Effect against brown planthoppers (foliar spray on rice seedlings)
Format: in vivo
Conditions: Nilaparvata lugens, foliar, 168 h, read-out: % Mortality after 7 days
Method: Effect Against Brown Planthoppers (Nilaparvata lugens)
An emulsifiable concentrate of the compound of the invention, prepared in the same manner as Example 112 below, was diluted with water to a concentration of 500 ppm and sprayed over the stems and leaves of rice seedlings in the 2-leaf stage at the rate of 10 ml per paper pot. Water was put in test tubes and the treated rice seedlings were placed therein. Then, 10 brown planthopper larvae were released in each tube, which was then capped with an aluminum cap. The test tubes were maintained in an incubator at 25° C. and the dead insects were counted 7 days after release. The % mortality was calculated using the following formula. [formula]

[1] = emulsifiable concentrate diluted with water to 500 ppm, sprayed on rice seedlings (2-leaf stage), 10 ml per paper pot, 10 larvae per tube, 25° C., dead insects counted 7 days after release

SMILES	mortality at 500 µg/mL [1] [%]	mortality at 500 µg/mL [%]
CN(C)C(=C[N+](=O)[O-])N(C=O)Cc1cccnc1 [Compound 72, 1-Dimethylamino-1-[N-formyl-N-(3-pyridylmethyl)]-amino-2-nitroethylene]	100	
CNC(=C[N+](=O)[O-])N(C)Cc1cnccn1 [Compound 73, 1-Methylamino-1-[N-methyl-N-(2-pyrazinyl)methyl]amino-2-nitroethylene]	100	
CCCN(Cc1ccc(Cl)nc1)C(N)=C[N+](=O)[O-] [Compound 75, 1-Amino-1-[N-(6-chloro-3-pyridylmethyl)-N-n-propyl]-amino-2-nitroethylene]		100
CCCN(Cc1ccc(Cl)nc1)C(=C[N+](=O)[O-])NC [Compound 76, 1-[N-(6-Chloro-3-pyridylmethyl)-N-n-propyl]amino-1-methylamino-2-nitroethylene]		100
CNC(=C[N+](=O)[O-])N(C)c1ccc(Cl)nc1 [Compound 78, 1-[N-(6-Chloro-3-pyridyl)-N-methyl]amino-1-methyl-amino-2-nitroethylene]	100	
CNC(=C[N+](=O)[O-])N(C)c1cccnc1 [Compound 79, 1-Methylamino-1-[N-methyl-N-(3-pyridyl)]amino-2-nitroethylene]	100	
CCNC(=C[N+](=O)[O-])N(C)Cc1ccc(Cl)nc1 [Compound 80, 1-[N-(6-Chloro-3-pyridylmethyl)-N-methyl]amino-1-ethylamino-2-nitroethylene]		100
CNC(=C[N+](=O)[O-])N(C)c1ccc(C)nc1 [Compound 84, 1-Methylamino-1-[N-methyl-N-(6-methyl-3-pyridyl)]-amino-2-nitroethylene]	100	
CCNC(=C[N+](=O)[O-])N(C)c1ccc(Cl)nc1 [Compound 85, 1-[N-(6-chloro-3-pyridyl)-N-methyl]amino-1-ethyl-amino-2-nitroethylene]	100	
CNC(=C[N+](=O)[O-])N(C)Cc1cncc(Br)c1 [Compound 86, 1-[N-(5-Bromo-3-pyridylmethyl)-N-methyl]amino-1-methylamino-2-nitroethylene]	100	
CNC(=C[N+](=O)[O-])N(C)Cc1cscn1 [Compound 88, 1-Methylamino-1-[N-methyl-N-(4-thiazolyl)methyl]-amino-2-nitroethylene]	100	
O=[N+]([O-])C=C(NCc1ccc(Cl)nc1)NCc1ccc(Cl)nc1 [Compound 89, 1,1-bis(6-Chloro-3-pyridylmethyl)amino-2-nitro-ethylene]		100
CCN(C(=C[N+](=O)[O-])NC)c1ccc(Cl)nc1 [Compound 90, 1-[N-(6-Chloro-3-pyridyl)-N-ethyl]amino-1-methyl-amino-2-nitroethylene]	100	
CCCN(C(=C[N+](=O)[O-])NC)c1ccc(Cl)nc1 [Compound 91, 1-[N-(6-Chloro-3-pyridyl)-N-n-propyl]amino-1-methyl-amino-2-nitroethylene]	100	
CCCCN(C(=C[N+](=O)[O-])NC)c1ccc(Cl)nc1 [Compound 92, 1-[N-n-Butyl-N-(6-chloro-3-pyridyl)]amino-1-methyl-amino-2-nitroethylene]	100	
CCNC(=C[N+](=O)[O-])N(CC)c1ccc(Cl)nc1 [Compound 93, 1-[N-(6-Chloro-3-pyridyl)-N-ethyl]amino-1-ethyl-amino-2-nitroethylene]	100	
CCCNC(=C[N+](=O)[O-])N(C)c1ccc(Cl)nc1 [Compound 95, 1-[N-(6-Chloro-3-pyridyl)-N-methyl]amino-1-n-propyl-amino-2-nitroethylene]	100	

SMILES	mortality at 500 µg/mL [1] [%]	mortality at 500 µg/mL [%]
CNC(=C[N+](=O)[O-])Nc1ccc(Cl)nc1 [Compound 96, 1-(6-Chloro-3-pyridyl)amino-1-methylamino-2-nitro-ethylene]	100	
CNC(=C[N+](=O)[O-])N(C)Cc1ccc(C)nc1 [Compound 97, 1-Methylamino-1-[N-methyl-N-(6-methyl-3-pyridyl-methyl)]amino-2-nitroethylene]		100
CNC(=C[N+](=O)[O-])N(C)Cc1ccc(F)nc1 [Compound 98]		100
CCN(Cc1ccc(F)nc1)C(=C[N+](=O)[O-])NC [Compound 99, 1-[N-Ethyl-N-(6-fluoro-3-pyridylmethyl)]amino-1-methylamino-2-nitroethylene]		100
CNC(=C[N+](=O)[O-])N(C)Cc1ccc(Br)nc1 [Compound 100, 1-[N-(6-Bromo-3-pyridylmethyl)-N-methyl]amino-1-methylamino-2-nitroethylene]		100
CCN(Cc1ccc(Br)nc1)C(=C[N+](=O)[O-])NC [Compound 101, 1-[N-(6-Bromo-3-pyridylmethyl)-N-ethyl]amino-1-methylamino-2-nitroethylene]		100
CNC(=C[N+](=O)[O-])N(C)Cc1cnc(Cl)s1 [Compound 102, 1-[N-(2-Chloro-5-thiazolylmethyl)-N-methyl]amino-1-methylamino-2-nitroethylene]		100
CCN(Cc1cnc(Cl)s1)C(=C[N+](=O)[O-])NC [Compound 103, 1-[N-(2-Chloro-5-thiazolylmethyl)-N-ethyl]amino-1-methylamino-2-nitroethylene]		100
CN(C)C(=C[N+](=O)[O-])NCc1cnc(Cl)s1 [Compound 104, 1-(2-Chloro-5-thiazolylmethyl)amino-1-dimethyl-amino-2-nitroethylene]		100
O=[N+]([O-])C=C(NCc1cnc(Cl)s1)NCc1cnc(Cl)s1 [Compound 105, 1,1-bis(2-chloro-5-thiazolylmethyl)amino-2-nitroethylene]		100
CNC(=C[N+](=O)[O-])NCc1cnc(Cl)s1 [Compound 106, 1-(2-Chloro-5-thiazolylmethyl)amino-1-methylamino-2-nitroethylene]		100
CN(C)C(=C[N+](=O)[O-])Nc1ccc(Cl)nc1 [Compound 107, 1-(6-Chloro-3-pyridyl)amino-1-dimethylamino-2-nitrothylene]	100	
CNC(=C[N+](=O)[O-])N(C)c1ccc(OC)nc1 [Compound 108, 1-[N-(6-Methoxy-3-pyridyl)-N-methyl]amino-1-1-methyl-amino-2-nitroethylene]	100	
CCOC(=O)C(=C(NC)N(C)c1ccc(Cl)nc1)[N+](=O)[O-] [Compound 109, 1-[N-(6-Chloro-3-pyridyl)-N-methyl]amino-1-methylamino-2-ethoxycarbonyl-2-nitroethylene]	100	
CN(C=O)C(=C[N+](=O)[O-])N(C)Cc1ccc(Cl)nc1 [Compound 110, 1-[N-(6-Chloro-3-pyridylmethyl)-N-methyl]amino-1-(N-formyl-N-methyl)amino-2-nitroethylene]		100
CCN(Cc1ccc(Cl)nc1)C(=C[N+](=O)[O-])N(C)C=O [Compound 111, 1-[N-(6-Chloro-3-pyridylmethyl)-N-ethyl]amino-1-(N-formyl-N-methyl)amino-2-nitroethylene]		100
CN(C=O)C(=C[N+](=O)[O-])N(C)c1ccc(Cl)nc1 [Compound 112, 1[N-(6-Chloro-3-pyridyl)-N-methyl]amino-1-(N-formyl-N-methyl)amino-2-nitroethylene]	100	
